Experimental data as given in US8552184B2, “Compounds and methods for treating disorders related to glucose metabolism” (Melior Pharmaceuticals I, Inc., priority 2008, dated 2013).
Entries after “also recorded” stand apart in the source; their conditions may differ.

Key:
[1] = test system: CD1 male mice; test: Oral glucose tolerance test (mouse model of hyperglycemia / type II diabetes); format: in vivo; conditions: for Effect on blood glucose levels (in words): mouse model of hyperglycemia, high glucose load
Text: Type II diabetes is characterized by high blood glucose levels in the presence of normal amounts of insulin. Animal models of type II diabetes involve administering high levels of glucose and measuring blood glucose levels and the ability of the experimental animal to maintain glucose homeostasis over time. Several pharmacological structural classes can effectively regulate this hyperglycemic response including sulfonylureas, thiazoladinediones (PPARγ agonists; glitazones) or metformin (glucophage). These drug classes are also clinically approved for use in humans. In one present study, a mouse model of hyperglycemia has been established by administering high levels of glucose to mice.
CD1 male mice (Harlan, Indianapolis, Ind.) of between 8 and 10 weeks of age were fasted 18 hours prior to the start of the study. All blood glucose levels were measured using an Accu-Check Aviva glucose monitors with Aviva glucose test strips from a blood drop derived from the mouse tail. Prior to any treatment, baseline levels of blood glucose were measured in fasted mice. Thirty minutes after baseline measurement, Compound 101 or vehicle was administered via intravenous administration. Thirty minutes after compound administration, animals were administered an oral solution (via gavage) of glucose in distilled water. The dose of glucose was 1.5 g/Kg of body weight. Blood glucose levels were measured 15, 30, 60, 90 and 120 minutes after glucose challenge. There were 6 mice per treatment group.
Blood glucose levels were taken from treated and untreated groups at the times above and measured for concentration of glucose in milligram per deciliter of blood of sample. Average values were calculated for each time point from each group and summarized after performing statistical analysis in Table III below:
After plotting the concentration of blood glucose level over time of treated verses non-treated groups, the area under each curve was calculated to determine the glucose exposure of the treated groups of mice over time. A Student's t test with a p value of <0.001 was performed to generate a standard deviation for the average calculated glucose exposure of the group treated with Compound 101 as compared to the group treated with vehicle alone.

[2] = test system: CD1 male mice; test: as above; format: in vivo; conditions: area under blood glucose vs time curve; 7 mg/kg intravenous; oral glucose 1.5 g/Kg; p < 0.01 vs vehicle

Compound | Blood glucose levels, AVG ± SEM ([1]; 0 min, baseline in fasted mice before treatment, Compound 101 group (7 mg/kg intravenous given at 30 min)) [mg/dL] | Blood glucose levels, AVG ± SEM ([1]; 75 minutes (15 min after oral glucose 1.5 g/Kg), 7 mg/kg intravenous, 30 min before glucose) [mg/dL] | Blood glucose levels, AVG ± SEM ([1]; 90 minutes (30 min after oral glucose 1.5 g/Kg), 7 mg/kg intravenous, 30 min before glucose) [mg/dL] | Blood glucose levels, AVG ± SEM ([1]; 120 minutes (60 min after oral glucose 1.5 g/Kg), 7 mg/kg intravenous, 30 min before glucose) [mg/dL] | Blood glucose levels, AVG ± SEM ([1]; 150 minutes (90 min after oral glucose 1.5 g/Kg), 7 mg/kg intravenous, 30 min before glucose) [mg/dL] | Blood glucose levels, AVG ± SEM ([1]; 180 minutes (120 min after oral glucose 1.5 g/Kg), 7 mg/kg intravenous, 30 min before glucose) [mg/dL] | Effect on blood glucose levels (in words) [1] | Glucose Exposure (Area Under the Curve; AUC), blood glucose levels AUC [2] [mg·min/dL]
Cc1cccc(Oc2c[nH]c(=O)[nH]c2=O)c1 [Compound 101, 5-(m-tolyloxy)pyrimidine-2,4(1H,3H)-dione] | 62.0 ± 13.1 | 119.6 ± 36.0 | 156.4 ± 55.9 | 152.2 ± 33.9 | 107.8 ± 34.1 | 102.6 ± 39.9 | effective in reducing blood glucose levels; also recorded: effectively controls glucose levels in vivo | 8424.7 ± 1922.5
CN(C)C(=N)N=C(N)N [metformin, reference compound] |  |  |  |  |  |  | can effectively reduce the blood glucose load | 
